# Test results taken from US11173193B2, “Immunobiological products” (priority 2016, dated 2021).
# What was measured:
# subclinical mastitis = settings: known methods of treating mastitis of cows; cited from earlier work
# mice = experiment: Ear swelling test of mice, compared to Hostacortin H; type: in vivo
# Method: Ear erythema was determined by visual inspection and detection of presence (+) or absence (−) signs.
# The thickness of the control and experimental ear in all animals was measured with a micrometer. Performance measurements were summed (Σ) separately the right and left ears in groups. The percentage of ear swelling and activity series is calculated using the following formulas: […]
# [1] = Solubility of hydro-colloid and chitosan; type: physicochemical
# Method: Test solution: An adequate sample of Chitosan HCl, Chitosan-HAc, Chitosan, Chitosan-Valeric acid-Hydro Colloid and valeric acid, respectively was dissolved in the solvent above. This mixture was shacked and afterwards sonified in an ultrasonic bath for 5 min.
# Sample: Chitosan suspended in water
# Result: An acceptable solution of Chitosan in waterish or organic solvents like Methanol etc. is not possible. A suitable solubilization of Chitosan is only possible in stronger acids like HCl or HAc under production of Chitosan HCl or Chitosan HAc.
# [2] = Dose 0.1 ml, right ear (allergen provocation site)
molecule,measurement,setting,value
CCN(CC)CCOC(=O)c1ccc(N)cc1 [procaine],recovery time,subclinical mastitis,3 to 5 days
"CC(=O)OCC(=O)[C@@]1(O)CC[C@H]2[C@@H]3CCC4=CC(=O)C=C[C@]4(C)[C@H]3[C@@H](O)C[C@@]21C [prednisolone-21-acetyl, prednisolone-21-acetate]",Antiallergic activity in Ear swelling test after 2 hours post challenge,mice; Dose 0.1 ml,14.2%
same,Antiallergic activity in Ear swelling test after 24 hours post challenge,mice; Dose 0.1 ml,17.5%
same,Antiallergic activity in Ear swelling test after 48 hours post challenge,mice; Dose 0.1 ml,10.7%
same,"Σ Ear thickness after 2 hours post challenge, Left","mice; Dose 0.1 ml, left ear",335 μm
same,"Σ Ear thickness after 24 hours post challenge, Left","mice; Dose 0.1 ml, left ear",330 μm
same,"Σ Ear thickness after 48 hours post challenge, Left","mice; Dose 0.1 ml, left ear",326 μm
same,"Σ Ear thickness after 2 hours post challenge, Right",mice; [2],345 μm
same,"Σ Ear thickness after 24 hours post challenge, Right",mice; [2],360 μm
same,"Σ Ear thickness after 48 hours post challenge, Right",mice; [2],355 μm
same,inflammatory response in challenged mice,mice; all stages of the experiment,positive dynamics of reducing inflammatory response
chitosan,Solubility in water,[1],water insoluble
same,solution in waterish or organic solvents like Methanol,[1],not possible
